This note sets out measurements from patent US20260232574A1, “COMPOSITIONS AND METHODS FOR TREATING DYSMENORRHEA” (Daré Bioscience, Inc., priority 2023, published 2026).

This data set in a line: pH / titration curve of 4% diclofenac sodium in water. Type of data set: physicochemical.

`O=C(O)Cc1ccccc1Nc1c(Cl)cccc1Cl` [diclofenac, 2-[2-(2,6-dichloroanilino)phenyl]acetic acid]: under “4% diclofenac sodium in water”, the “pH of diclofenac in water” value is recorded as “around 7.8”. For the same compound, the “buffering capacity to adjust the pH by 1 unit” value (strong acid or base) is listed as 0.625 mMoles.
